{"source": "ChEMBL document CHEMBL2331238", "about": "“Xanthoquinodins from the endolichenic fungal strain Chaetomium elatum” (J Nat Prod, 2013)", "assay_type_in_all_cases": "functional, cell-based", "key": {"SW480": {"tested_on": "SW480", "assay": "Cytotoxicity against human SW480 assessed as cell viability measured after 48 hrs by MTT assay", "conditions": "SW480, 48 h"}, "A549": {"tested_on": "A549", "assay": "Cytotoxicity against human A549 assessed as cell viability measured after 48 hrs by MTT assay", "conditions": "A549, 48 h"}, "SMMC-7721": {"tested_on": "SMMC-7721", "assay": "Cytotoxicity against human SMMC7721 assessed as cell viability measured after 48 hrs by MTT assay", "conditions": "SMMC-7721, 48 h"}, "HL-60": {"tested_on": "HL-60", "assay": "Cytotoxicity against human HL60 cells assessed as cell viability measured after 48 hrs by MTT assay", "conditions": "HL-60, 48 h"}, "MCF7": {"tested_on": "MCF7", "assay": "Cytotoxicity against human MCF7 assessed as cell viability measured after 48 hrs by MTT assay", "conditions": "MCF7, 48 h"}}, "data": [{"smiles": "COC(=O)[C@@]12Oc3c(c(O)cc4c3[C@@H]3C=C[C@]5(C4)C(=C(O)c4c(O)cc(C)cc4[C@@H]5O)C3=O)C(=O)C1=C(O)CC[C@@H]2O", "note": "[XANTHOQUINODIN B5]", "values": [{"measurement": "IC50", "setting": "SW480", "value": "> 40", "unit": "µM"}, {"measurement": "IC50", "setting": "A549", "value": 11.4, "unit": "µM"}, {"measurement": "IC50", "setting": "SMMC-7721", "value": 15, "unit": "µM"}, {"measurement": "IC50", "setting": "HL-60", "value": 4.74, "unit": "µM"}, {"measurement": "IC50", "setting": "MCF7", "value": 38.2, "unit": "µM"}]}, {"smiles": "COC(=O)[C@]1([C@@H]2CCC(=O)O2)CC(=O)c2c(cc3c(c2O)[C@@H]2C=C[C@]4(C3)C(=C(O)c3c(O)cc(C)cc3[C@@H]4O)C2=O)O1", "note": "[XANTHOQUINODIN A4]", "values": [{"measurement": "IC50", "setting": "SW480", "value": 18.9, "unit": "µM"}, {"measurement": "IC50", "setting": "A549", "value": 25.5, "unit": "µM"}, {"measurement": "IC50", "setting": "SMMC-7721", "value": 19.2, "unit": "µM"}, {"measurement": "IC50", "setting": "HL-60", "value": "> 40", "unit": "µM"}, {"measurement": "IC50", "setting": "MCF7", "value": 31.2, "unit": "µM"}]}, {"smiles": "COC(=O)[C@]1([C@@H]2CCC(=O)O2)CC(=O)c2c(cc3c(c2O)[C@@H]2C=C[C@@]4(C3)C(=O)c3cc(C)cc(O)c3C(O)=C4C2=O)O1", "note": "[XANTHOQUINODIN A3]", "values": [{"measurement": "IC50", "setting": "SW480", "value": 15.5, "unit": "µM"}, {"measurement": "IC50", "setting": "A549", "value": 15.3, "unit": "µM"}, {"measurement": "IC50", "setting": "SMMC-7721", "value": 16.7, "unit": "µM"}, {"measurement": "IC50", "setting": "HL-60", "value": 4.18, "unit": "µM"}, {"measurement": "IC50", "setting": "MCF7", "value": 7.47, "unit": "µM"}]}, {"smiles": "COC(=O)[C@]12Oc3cc4c(c(O)c3C(=O)C1=C(O)CC[C@@H]2O)[C@@H]1C=C[C@]2(C4)C(=C(O)c3c(O)cc(C)cc3[C@@H]2O)C1=O", "note": "[XANTHOQUINODIN A6]", "values": [{"measurement": "IC50", "setting": "SW480", "value": 6.44, "unit": "µM"}, {"measurement": "IC50", "setting": "A549", "value": 2.04, "unit": "µM"}, {"measurement": "IC50", "setting": "SMMC-7721", "value": 2.87, "unit": "µM"}, {"measurement": "IC50", "setting": "HL-60", "value": 3.75, "unit": "µM"}, {"measurement": "IC50", "setting": "MCF7", "value": 5.64, "unit": "µM"}]}, {"smiles": "COC(=O)CC[C@H](O)[C@@]1(C(=O)OC)CC(=O)c2c(cc3c(c2O)[C@@H]2C=C[C@]4(C3)C(=C(O)c3c(O)cc(C)cc3[C@@H]4O)C2=O)O1", "note": "[XANTHOQUINODIN A5]", "values": [{"measurement": "IC50", "setting": "SW480", "value": 16.2, "unit": "µM"}, {"measurement": "IC50", "setting": "A549", "value": 18.6, "unit": "µM"}, {"measurement": "IC50", "setting": "SMMC-7721", "value": 16.8, "unit": "µM"}, {"measurement": "IC50", "setting": "HL-60", "value": 26.6, "unit": "µM"}, {"measurement": "IC50", "setting": "MCF7", "value": 24, "unit": "µM"}]}, {"smiles": "CC(=O)O[C@H]1C(=O)[C@@]2(C)[C@H]([C@H](OC(=O)c3ccccc3)[C@]3(O)C[C@H](OC(=O)[C@H](O)[C@@H](NC(=O)c4ccccc4)c4ccccc4)C(C)=C1C3(C)C)[C@]1(OC(C)=O)CO[C@@H]1C[C@@H]2O", "note": "[PACLITAXEL]", "values": [{"measurement": "IC50", "setting": "SW480", "value": "< 0.008", "unit": "µM"}, {"measurement": "IC50", "setting": "A549", "value": "< 0.008", "unit": "µM"}, {"measurement": "IC50", "setting": "SMMC-7721", "value": "< 0.008", "unit": "µM"}, {"measurement": "IC50", "setting": "HL-60", "value": "< 0.008", "unit": "µM"}, {"measurement": "IC50", "setting": "MCF7", "value": "< 0.008", "unit": "µM"}]}, {"smiles": "COC(=O)[C@]12Oc3c(c(O)cc4c3[C@@H]3C=C[C@]5(C4)C(=C(O)c4c(O)cc(C)cc4[C@@H]5O)C3=O)C(=O)C1=C(O)CC[C@@H]2O", "note": "[XANTHOQUINODIN B4]", "values": [{"measurement": "IC50", "setting": "SW480", "value": "> 40", "unit": "µM"}, {"measurement": "IC50", "setting": "A549", "value": 25.1, "unit": "µM"}, {"measurement": "IC50", "setting": "SMMC-7721", "value": 27.7, "unit": "µM"}, {"measurement": "IC50", "setting": "HL-60", "value": 3.01, "unit": "µM"}, {"measurement": "IC50", "setting": "MCF7", "value": 30, "unit": "µM"}]}, {"smiles": "COC(=O)[C@]12Oc3cc4c(c(O)c3C(=O)C1=C(O)CC[C@@H]2O)[C@@H]1C=C[C@@]2(C4)C(=O)c3cc(C)cc(O)c3C(O)=C2C1=O", "note": "[XANTHOQUINODIN A2]", "values": [{"measurement": "IC50", "setting": "SW480", "value": "> 40", "unit": "µM"}, {"measurement": "IC50", "setting": "A549", "value": 4.04, "unit": "µM"}, {"measurement": "IC50", "setting": "SMMC-7721", "value": 6.77, "unit": "µM"}, {"measurement": "IC50", "setting": "HL-60", "value": 5.5, "unit": "µM"}, {"measurement": "IC50", "setting": "MCF7", "value": 20.8, "unit": "µM"}]}, {"smiles": "COC(=O)[C@@]12Oc3cc4c(c(O)c3C(=O)C1=C(O)CC[C@@H]2O)[C@@H]1C=C[C@@]2(C4)C(=O)c3cc(C)cc(O)c3C(O)=C2C1=O", "note": "[XANTHOQUINODIN A1]", "values": [{"measurement": "IC50", "setting": "SW480", "value": 28.8, "unit": "µM"}, {"measurement": "IC50", "setting": "A549", "value": 3.33, "unit": "µM"}, {"measurement": "IC50", "setting": "SMMC-7721", "value": 8, "unit": "µM"}, {"measurement": "IC50", "setting": "HL-60", "value": 6.22, "unit": "µM"}, {"measurement": "IC50", "setting": "MCF7", "value": 14.2, "unit": "µM"}]}]}
